The text below walks through data of paper PMC11345841, “Exploring 2-Sulfonylpyrimidine Warheads as Acrylamide Surrogates for Targeted Covalent Inhibition: A BTK Story” (Journal of Medicinal Chemistry, 2024).

In one experiment the target is T1, TEC (Homo sapiens, UniProt P42680).
T1 construct: purchased Eurofins DiscoverX KINOMEscan (scanTK)
T1 sequence (P42680 1-631): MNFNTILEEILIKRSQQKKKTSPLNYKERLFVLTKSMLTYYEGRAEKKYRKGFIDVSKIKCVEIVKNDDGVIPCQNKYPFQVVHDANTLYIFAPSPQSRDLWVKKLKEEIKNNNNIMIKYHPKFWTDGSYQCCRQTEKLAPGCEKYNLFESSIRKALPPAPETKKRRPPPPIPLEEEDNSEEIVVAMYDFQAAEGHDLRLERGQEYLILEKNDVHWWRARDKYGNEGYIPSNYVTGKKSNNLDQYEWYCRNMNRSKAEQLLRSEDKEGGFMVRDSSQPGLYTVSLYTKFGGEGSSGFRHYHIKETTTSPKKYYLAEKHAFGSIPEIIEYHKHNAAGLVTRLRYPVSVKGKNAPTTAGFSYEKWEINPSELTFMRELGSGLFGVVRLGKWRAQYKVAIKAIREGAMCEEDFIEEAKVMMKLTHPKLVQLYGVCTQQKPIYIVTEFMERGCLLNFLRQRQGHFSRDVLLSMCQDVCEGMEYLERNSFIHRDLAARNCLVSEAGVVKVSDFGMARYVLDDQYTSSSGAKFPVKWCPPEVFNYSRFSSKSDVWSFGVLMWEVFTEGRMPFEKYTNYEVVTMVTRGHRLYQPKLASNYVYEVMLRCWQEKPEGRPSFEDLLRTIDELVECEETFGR
Put plainly: KINOMEscan ScanTK. Type of experiment: binding.

The next experiment addresses T2, PYK2 (Homo sapiens, UniProt Q14289).
T2 construct: purchased Eurofins DiscoverX KINOMEscan (scanTK)
Nature of the experiment: KINOMEscan ScanTK. In kind it is binding.

For another experiment, the target named is T3, CSF1R (Homo sapiens, UniProt P07333).
T3 construct: purchased Eurofins DiscoverX KINOMEscan (scanTK)
T3 sequence (P07333 20-972): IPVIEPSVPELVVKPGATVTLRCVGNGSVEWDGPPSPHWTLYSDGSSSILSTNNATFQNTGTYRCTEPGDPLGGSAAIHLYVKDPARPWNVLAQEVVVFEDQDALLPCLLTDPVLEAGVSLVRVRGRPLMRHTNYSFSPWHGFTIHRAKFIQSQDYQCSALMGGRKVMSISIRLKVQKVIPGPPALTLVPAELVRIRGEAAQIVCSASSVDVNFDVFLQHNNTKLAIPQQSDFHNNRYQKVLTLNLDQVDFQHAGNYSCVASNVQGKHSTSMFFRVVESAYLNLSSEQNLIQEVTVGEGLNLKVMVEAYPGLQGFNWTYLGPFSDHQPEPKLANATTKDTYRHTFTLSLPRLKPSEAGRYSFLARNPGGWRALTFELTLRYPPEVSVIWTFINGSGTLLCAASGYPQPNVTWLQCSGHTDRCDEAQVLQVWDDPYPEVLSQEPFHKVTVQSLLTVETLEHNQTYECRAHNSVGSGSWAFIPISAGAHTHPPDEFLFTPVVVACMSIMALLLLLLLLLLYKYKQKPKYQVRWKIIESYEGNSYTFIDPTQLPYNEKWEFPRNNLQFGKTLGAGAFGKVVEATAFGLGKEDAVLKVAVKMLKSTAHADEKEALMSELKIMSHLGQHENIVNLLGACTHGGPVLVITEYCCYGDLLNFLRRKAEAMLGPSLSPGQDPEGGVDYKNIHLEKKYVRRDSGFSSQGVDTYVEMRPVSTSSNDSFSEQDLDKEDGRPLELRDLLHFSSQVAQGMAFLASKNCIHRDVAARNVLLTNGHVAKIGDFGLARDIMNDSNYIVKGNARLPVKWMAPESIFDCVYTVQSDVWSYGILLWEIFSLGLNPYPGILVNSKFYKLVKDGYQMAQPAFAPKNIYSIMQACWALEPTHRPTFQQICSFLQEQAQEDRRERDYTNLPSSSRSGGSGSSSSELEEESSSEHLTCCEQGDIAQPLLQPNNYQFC
Nature of the experiment: KINOMEscan ScanTK. In kind it is binding.

A further experiment concerns the target T4, KIT(V559D) (Homo sapiens, UniProt P10721, V559D).
T4 construct: purchased Eurofins DiscoverX KINOMEscan (scanTK)
Nature of the experiment: KINOMEscan ScanTK. In kind it is binding.

The next experiment deals with T5, KIT(V559D,T670I) (Homo sapiens, UniProt P10721, T670I/V559D).
T5 construct: purchased Eurofins DiscoverX KINOMEscan (scanTK)
T5 sequence (P10721 26-976 V559D/T670I): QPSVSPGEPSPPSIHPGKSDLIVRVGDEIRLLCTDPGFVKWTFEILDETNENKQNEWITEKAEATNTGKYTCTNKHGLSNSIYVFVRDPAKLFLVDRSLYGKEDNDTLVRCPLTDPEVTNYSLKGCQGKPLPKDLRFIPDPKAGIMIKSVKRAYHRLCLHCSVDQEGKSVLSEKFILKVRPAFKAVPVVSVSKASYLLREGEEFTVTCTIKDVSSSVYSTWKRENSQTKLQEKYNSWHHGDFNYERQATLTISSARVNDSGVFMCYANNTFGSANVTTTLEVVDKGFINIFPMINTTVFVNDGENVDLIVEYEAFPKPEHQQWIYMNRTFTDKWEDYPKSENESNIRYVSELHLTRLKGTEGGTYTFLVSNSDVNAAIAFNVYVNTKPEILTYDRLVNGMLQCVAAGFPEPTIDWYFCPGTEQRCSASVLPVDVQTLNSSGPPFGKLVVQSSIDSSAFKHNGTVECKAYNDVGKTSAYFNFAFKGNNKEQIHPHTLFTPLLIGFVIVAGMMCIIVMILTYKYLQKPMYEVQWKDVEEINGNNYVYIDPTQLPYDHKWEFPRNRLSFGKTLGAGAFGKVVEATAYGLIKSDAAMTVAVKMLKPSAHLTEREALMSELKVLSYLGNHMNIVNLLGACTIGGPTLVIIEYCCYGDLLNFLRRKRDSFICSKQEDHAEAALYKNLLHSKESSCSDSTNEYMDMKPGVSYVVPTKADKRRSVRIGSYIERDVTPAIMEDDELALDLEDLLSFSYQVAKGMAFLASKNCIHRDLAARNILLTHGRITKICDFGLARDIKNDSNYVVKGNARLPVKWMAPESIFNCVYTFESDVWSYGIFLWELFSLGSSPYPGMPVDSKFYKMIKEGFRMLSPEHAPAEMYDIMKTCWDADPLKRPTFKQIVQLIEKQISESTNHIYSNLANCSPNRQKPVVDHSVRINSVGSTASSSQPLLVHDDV
Nature of the experiment: KINOMEscan ScanTK. In kind it is binding.

For the next experiment, the target named is T6, KIT(L576P) (Homo sapiens, UniProt P10721, L576P).
T6 construct: purchased Eurofins DiscoverX KINOMEscan (scanTK)
T6 sequence (P10721 26-976 L576P): as the sequence (P10721 26-976 V559D/T670I) above, with D534V, L551P, I645T counted along it
Nature of the experiment: KINOMEscan ScanTK. Type of experiment: binding.

A further experiment concerns TMD8 cells. Nature of the experiment: Annexin V/propidium iodide staining (apoptosis, viability). In kind it is cell-based, human. To be noted: 72 h. Here is the method:
We tested the effects of compounds in TMD8 cells, derived from an activated B-cell DLBCL. These cells have constitutive signaling via the BCR and additionally carry MYD88^L265P and CD79B mutations which give rise to My-T-BCR complex. […] Apoptosis was quantified after exposure of cells to compounds for 72 h using annexin V/PI staining and flow cytometry (Figure 3E, Figure S4).
Cells were washed in phosphate-buffered saline and resuspended in 300 μL of annexin V staining buffer (10 mM HEPES HCl (pH 7.4), 140 mM NaCl, 2.5 mM CaCl2) supplemented with 2.5 μg/mL fluorescein isothiocyanate-labeled annexin V (kind gift from Dr Patrick Duriez, Protein Core Facility, University of Southampton) and 12.5 μM propidium iodide (Invitrogen). Cells were analyzed by flow cytometry (Canto II system, BD Biosciences) and the percentage of viable cells was determined by calculating the proportion of Annexin V-/PI-cells as a percentage of all cells (results for untreated cells at 72 h set to 100%).

The target of the next experiment is T7, SYK (Homo sapiens, UniProt P43405).
T7 construct: purchased Eurofins DiscoverX KINOMEscan (scanTK)
Put plainly: KINOMEscan ScanTK. Type of experiment: binding.

The target in the next experiment is T8, FLT3 (Homo sapiens, UniProt P36888).
T8 construct: purchased Eurofins DiscoverX KINOMEscan (scanTK)
T8 sequence (P36888 27-993): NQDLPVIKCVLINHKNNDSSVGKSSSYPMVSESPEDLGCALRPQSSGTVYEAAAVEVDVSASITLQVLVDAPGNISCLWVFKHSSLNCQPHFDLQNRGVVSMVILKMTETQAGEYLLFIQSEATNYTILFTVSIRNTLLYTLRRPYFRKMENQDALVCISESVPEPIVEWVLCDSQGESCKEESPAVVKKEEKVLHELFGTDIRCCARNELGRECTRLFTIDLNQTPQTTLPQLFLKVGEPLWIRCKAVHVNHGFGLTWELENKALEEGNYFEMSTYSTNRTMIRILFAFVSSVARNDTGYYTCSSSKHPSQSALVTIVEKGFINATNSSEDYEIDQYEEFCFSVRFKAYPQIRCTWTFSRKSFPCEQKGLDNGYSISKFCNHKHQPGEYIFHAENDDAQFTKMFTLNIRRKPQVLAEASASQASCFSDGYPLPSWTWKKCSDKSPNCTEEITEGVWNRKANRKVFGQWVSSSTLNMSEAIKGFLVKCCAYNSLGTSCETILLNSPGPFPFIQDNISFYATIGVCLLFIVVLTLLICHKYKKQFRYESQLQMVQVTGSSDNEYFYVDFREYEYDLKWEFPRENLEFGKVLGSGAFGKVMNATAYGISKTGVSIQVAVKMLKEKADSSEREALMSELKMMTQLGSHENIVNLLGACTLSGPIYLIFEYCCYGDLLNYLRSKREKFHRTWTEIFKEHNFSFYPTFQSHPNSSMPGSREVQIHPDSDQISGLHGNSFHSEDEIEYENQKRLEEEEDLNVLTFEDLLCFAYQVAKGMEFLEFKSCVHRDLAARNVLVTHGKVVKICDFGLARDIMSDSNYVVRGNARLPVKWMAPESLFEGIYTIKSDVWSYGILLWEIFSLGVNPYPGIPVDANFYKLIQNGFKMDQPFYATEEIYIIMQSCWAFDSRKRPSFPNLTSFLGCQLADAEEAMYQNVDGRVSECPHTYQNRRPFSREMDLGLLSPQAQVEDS
Put plainly: KINOMEscan ScanTK. Type of experiment: binding.

Like-named read-outs stand apart in the source and are kept apart here.

T2 sequence (Q14289 whole entry): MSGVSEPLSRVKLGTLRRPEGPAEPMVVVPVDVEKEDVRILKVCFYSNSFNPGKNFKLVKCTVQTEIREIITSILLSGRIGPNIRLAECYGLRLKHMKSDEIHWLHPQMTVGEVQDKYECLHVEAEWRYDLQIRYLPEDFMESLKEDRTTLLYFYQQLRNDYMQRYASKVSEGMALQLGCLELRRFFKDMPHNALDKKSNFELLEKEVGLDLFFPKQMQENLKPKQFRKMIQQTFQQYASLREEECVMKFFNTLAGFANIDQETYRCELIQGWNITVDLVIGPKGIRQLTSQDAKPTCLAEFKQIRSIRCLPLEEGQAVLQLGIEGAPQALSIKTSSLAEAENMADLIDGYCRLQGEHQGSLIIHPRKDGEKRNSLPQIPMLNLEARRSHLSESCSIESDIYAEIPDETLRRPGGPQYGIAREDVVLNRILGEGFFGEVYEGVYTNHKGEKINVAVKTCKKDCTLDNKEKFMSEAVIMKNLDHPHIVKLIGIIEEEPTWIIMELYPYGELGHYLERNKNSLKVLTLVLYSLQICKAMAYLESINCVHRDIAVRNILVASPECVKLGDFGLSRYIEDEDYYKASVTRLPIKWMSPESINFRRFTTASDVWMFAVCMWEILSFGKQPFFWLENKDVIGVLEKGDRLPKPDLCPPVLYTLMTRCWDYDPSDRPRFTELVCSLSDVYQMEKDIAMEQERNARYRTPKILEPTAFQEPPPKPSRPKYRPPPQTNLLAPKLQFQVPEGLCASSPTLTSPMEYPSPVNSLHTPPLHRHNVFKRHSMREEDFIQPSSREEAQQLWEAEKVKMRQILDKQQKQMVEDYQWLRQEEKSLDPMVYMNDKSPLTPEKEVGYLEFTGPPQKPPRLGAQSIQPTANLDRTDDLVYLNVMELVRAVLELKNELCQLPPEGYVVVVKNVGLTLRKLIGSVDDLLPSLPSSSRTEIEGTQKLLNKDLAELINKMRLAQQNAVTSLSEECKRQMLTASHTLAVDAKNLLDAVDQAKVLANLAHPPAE
T4 sequence (P10721 26-976 V559D): as the sequence (P10721 26-976 V559D/T670I) above, with I645T counted along it

`CNC(=O)c1cnc(S(C)(=O)=O)nc1N1CCCC(n2nc(-c3ccc(Oc4ccccc4)cc3)c3c(N)ncnc32)C1` (centres unmarked) [Compound 8d, 4-(3-(4-Amino-3-(4-phenoxyphenyl)-1H-pyrazolo[3,4-d]pyrimidin-1-yl)piperidin-1-yl)-N-methyl-2-(methylsulfonyl)pyrimidine-5-carboxamide]: the remaining binding at 1 µM at TEC (@1000nM, read-out: %Control) is 40%; at TEC (read-out: %Control @1000nM), 40%; on PYK2 (@1000nM, read-out: %Control), 100%; on PYK2 (read-out: %Control @1000nM) it was 100%; at CSF1R (@1000nM, read-out: %Control), 99%; at CSF1R (read-out: %Control @1000nM) it was 99%. For the same molecule, the remaining binding at 1 µM at KIT(V559D) (@1000nM, read-out: %Control) was 60%; on KIT(V559D) (read-out: %Control @1000nM), 60%; on KIT(V559D,T670I) (@1000nM, read-out: %Control) it was 79%; on KIT(V559D,T670I) (read-out: %Control @1000nM), 79%; on KIT(L576P) (@1000nM, read-out: %Control), 45%; on KIT(L576P) (read-out: %Control @1000nM) it was 45%. Also, the remaining binding at 1 µM worked out at 89% on SYK (@1000nM, read-out: %Control); 89% at SYK (read-out: %Control @1000nM); 65% at FLT3 (@1000nM, read-out: %Control); 65% at FLT3 (read-out: %Control @1000nM). In addition, the values for the difference in %Control versus compound Ib at 1 µM at CSF1R (@1000nM), at KIT(V559D,T670I) (@1000nM) and at SYK (@1000nM) were 19%, 11% and -2%, respectively. Moreover, the difference in %Control versus Ib at 1 µM on KIT(L576P) (@1000nM, read-out: % difference (compound - Ib %Control)) came to 13%. Further, the “fold lower apoptotic potency than Ibrutinib” value with TMD8 cells is listed as approximately 10 fold. Besides, in the experiment on TMD8 cells, the induction of apoptosis result is listed as “induced apoptosis”. The molecule further showed a difference in %Control from compound Ib at 1 µM on FLT3 (@1000nM) of 32%.
